We go through five molecules from patent US8518891B2 (priority 2006, dated 2013).

Several values for one entry are separate records, joined by “and”; a condition that tells them apart may be missing. Equal entries are not always repeated. Where two headings read alike, the source gives them in different places. Numbered stars: 1 amine (or outer) side, 2 acyl side, 3 side chain; on linkers, the order of the positions; unused ones are H or OH. Square brackets hold non-standard residues; d marks the D form. Peptide text beside a SMILES is read from it. * marks the point of attachment. X5 = NP(=O)(OCc1c(F)c(F)c(N*)c(F)c1F)N(CCCl)CCCl; X4 = NP(=O)(OCc1c(F)cc(N*)cc1F)N(CCCl)CCCl; X2 = NP(=O)(OCc1ccc(N*)c(F)c1)N(CCCl)CCCl; X1 = NP(=O)(OCc1ccc(N*)cc1F)N(CCCl)CCCl; X3 = NP(=O)(OCc1ccc(N*)cc1)N(CCCl)CCCl; Glutaryl = O=C(CCCC(=O)[*:2])[*:1]; Hyp = O=C(O)[C@@H]1C[C@@H](O)CN1; Chg = N[C@H](C(=O)O)C1CCCCC1 Some results are limits rather than exact numbers.

The nature of data set [1]: Stability of peptide-linker-drug conjugates in the absence of PSA, disappearance monitored by HPLC. It counts as physicochemical. The note with it: for half-life: 0.1 M phosphate buffer, pH 7.4, 37° C., read-out: T1/2 -PSA (stability) (converted); for Stability relative to 5a in the absence of PSA: in words. On the procedure:
(§1) First, the stability and PSA cleavage of glutaryl-Hyp-Ala-Ser-Chg-Gln-aminobenzyl phosphoramide mustard without substitutions on the benzyl ring (5a) was tested by monitoring the disappearance of the peptide-linker-drug conjugate using HPLC. […] Thus, peptide-linker-drug conjugate 5a is a substrate of PSA. The hydrolysis in the presence of PSA was 40 times faster than that in the absence of PSA. But, the instability in the absence of PSA was a concern. This instability can be addressed by introducing an electron-withdrawing fluorine atom on the aromatic ring as shown in Table 1. […] In the presence of PSA, they were more quickly hydrolyzed with t½of 43 and 57 min, respectively.

The target in another data set is PSA (Homo sapiens, UniProt P07288). The experiment in a line: PSA cleavage of peptide-linker-drug conjugates, disappearance monitored by HPLC. It counts as biochemical. To be noted: for half-life: PSA, in the presence of PSA; for Stability Ratio between T1/2 in the absence and presence of PSA: T1/2 (-PSA) / T1/2 (+PSA). On the procedure: as §1
The test system of data set [2] is LNCaP human prostate cancer cell line. As to the kind of experiment: In vitro antiproliferative activity assay in PSA-producing LNCaP cells. Format: cell-based. The note with it: 72 h drug exposure. From the text: (§2) Furthermore, analogs 5b and 5c were synthesized with an electron-withdrawing fluorine atom at C2 (5b) and C3 (5c), respectively.
Data set [3] has as its system DU145 human prostate cancer cell line. As to the kind of experiment: In vitro antiproliferative activity assay in non-PSA-producing DU145 cells. It counts as cell-based. The note with it: 72 h drug exposure.
Excerpt: as §2

[4] abbreviates: read-out: T1/2 +PSA (PSA-catalyzed cleavage) (converted).
Setting [5] is: read-out: t½ in the presence of PSA.

Chain of PSA (P07288 25-261): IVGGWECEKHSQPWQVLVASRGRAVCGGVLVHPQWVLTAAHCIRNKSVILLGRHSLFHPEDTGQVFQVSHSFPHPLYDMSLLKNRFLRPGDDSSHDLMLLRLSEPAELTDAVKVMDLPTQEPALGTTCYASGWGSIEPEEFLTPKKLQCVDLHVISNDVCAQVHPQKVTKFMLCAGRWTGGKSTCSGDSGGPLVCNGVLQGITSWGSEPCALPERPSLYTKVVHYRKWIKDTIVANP

As to `C[C@H](NC(=O)[C@@H]1C[C@@H](O)CN1C(=O)CCCC(=O)O)C(=O)N[C@@H](CO)C(=O)N[C@H](C(=O)N[C@@H](CCC(N)=O)C(=O)Nc1cc(F)c(COP(N)(=O)N(CCCl)CCCl)c(F)c1)C1CCCCC1` (stereo partly drawn) [5d, glutaryl-Hyp-Ala-Ser-Chg-Gln-NH-2,6-difluorobenzyl phosphoramide mustard] (Glutaryl-[Hyp]AS[Chg]Q-X4), the values for the half-life (in data set [1]; at PSA (setting [4])) were 131 h and 1.75 h, respectively. For the same molecule, the “Stability Ratio between T1/2 in the absence and presence of PSA” value at PSA was found to be 75. Besides, the figures for the IC50 in data set [2] and in data set [3] were 20 µM and above 100 µM, respectively.

Regarding `C[C@H](NC(=O)[C@@H]1C[C@@H](O)CN1C(=O)CCCC(=O)O)C(=O)N[C@@H](CO)C(=O)N[C@H](C(=O)N[C@@H](CCC(N)=O)C(=O)Nc1c(F)c(F)c(COP(N)(=O)N(CCCl)CCCl)c(F)c1F)C1CCCCC1` (stereo partly drawn) [5e, glutaryl-Hyp-Ala-Ser-Chg-Gln-NH-2,3,5,6-tetrafluorobenzyl phosphoramide mustard] (Glutaryl-[Hyp]AS[Chg]Q-X5), the half-life in data set [1] was 178 h; at PSA (setting [4]), 1.1 h. In addition, on PSA, the “Stability Ratio between T1/2 in the absence and presence of PSA” value is 162. Further, the IC50 in data set [2] and in data set [3] was above 100 µM in each case.

As to `C[C@H](NC(=O)[C@@H]1C[C@@H](O)CN1C(=O)CCCC(=O)O)C(=O)N[C@@H](CO)C(=O)N[C@H](C(=O)N[C@@H](CCC(N)=O)C(=O)Nc1ccc(COP(N)(=O)N(CCCl)CCCl)c(F)c1)C1CCCCC1` (stereo partly drawn) [5b, glutaryl-Hyp-Ala-Ser-Chg-Gln-NH-2-fluorobenzyl phosphoramide mustard] (Glutaryl-[Hyp]AS[Chg]Q-X1), the half-life in data set [1] is 105 h; at PSA (setting [4]), 0.93 h; at PSA (setting [5]), 0.717 h. In data set [1], the “Stability relative to 5a in the absence of PSA” value is on record as “much more stable than 5a”. In addition, at PSA, the “Stability Ratio between T1/2 in the absence and presence of PSA” value was 113. Further, the IC50 in data set [2] was 5.3 µM; in data set [3], above 100 µM.

As for `C[C@H](NC(=O)[C@@H]1C[C@@H](O)CN1C(=O)CCCC(=O)O)C(=O)N[C@@H](CO)C(=O)N[C@H](C(=O)N[C@@H](CCC(N)=O)C(=O)Nc1ccc(COP(N)(=O)N(CCCl)CCCl)cc1F)C1CCCCC1` (stereo partly drawn) [5c, glutaryl-Hyp-Ala-Ser-Chg-Gln-NH-3-fluorobenzyl phosphoramide mustard] (Glutaryl-[Hyp]AS[Chg]Q-X2), the half-life in data set [1] was 462 h; on PSA (setting [4]), 0.65 h; on PSA (setting [5]) it was 0.95 h. Further, the “Stability relative to 5a in the absence of PSA” value in data set [1] is recorded as “much more stable than 5a”. Moreover, the “Stability Ratio between T1/2 in the absence and presence of PSA” value on PSA is 711. For the same molecule, the IC50 is 29 µM in data set [2] and above 100 µM in data set [3].

Regarding `C[C@H](NC(=O)[C@@H]1C[C@@H](O)CN1C(=O)CCCC(=O)O)C(=O)N[C@@H](CO)C(=O)N[C@H](C(=O)N[C@@H](CCC(N)=O)C(=O)Nc1ccc(COP(N)(=O)N(CCCl)CCCl)cc1)C1CCCCC1` (stereo partly drawn) [5a, glutaryl-Hyp-Ala-Ser-Chg-Gln-NH-benzyl phosphoramide mustard] (Glutaryl-[Hyp]AS[Chg]Q-X3), the half-life in data set [1] was 48 h; on PSA (setting [4]), 1.2 h. The “Stability Ratio between T1/2 in the absence and presence of PSA” value at PSA was found to be 40. Moreover, the IC50 was 11 µM in data set [2]; ~35 µM and 35 µM in data set [3].
